Like-named read-outs stand apart in the source and are kept apart here.
Tests used:
high-risk MDS = test system: high-risk MDS; set-up: method as in PMID 35728048; details: pevonedistat 20 mg/m^2 D1,3,5 in combination with azacitidine; subset with high-risk MDS, post-hoc analysis, non-statistically significant improvement; cited from earlier work
[1] = set-up: method as in PMID 31097586, PMID 33441097; details: e.g. value, compared with clinical Cmax; cited from earlier work
[2] = Plasma pharmacokinetics of pevonedistat (LC/MS/MS, noncompartmental analysis); assay type: in vivo, human; details: for Cmax: read-out: preEOI Cmax (peak plasma concentration); for clearance: read-out: Cl (systemic clearance) (converted)
Method: Plasma was stored at − 80 °C until analysis.
Pharmacokinetic parameters were summarized using descriptive statistics.

AML = test system: AML; set-up: method as in PMID 25733005; details: cited from earlier work
[3] = test system: xenograft models of solid tumors, lymphoma, and AML; set-up: method as in PMID 20203261, PMID 20525923, PMID 23633453, PMID 22562464; details: cited from earlier work
[4] = cycle 1 day 1, dose level 1, pevonedistat 20 mg/m^2 IV (belinostat 800 mg/m^2), n=2, actual values
[5] = human, plasma, iv, 37 mg/m2, cycle 1 day 1, pevonedistat 37 mg/m^2 IV, all 37 mg/m^2 patients (dose levels 3-4), mean±SD, n=6
[6] = human, plasma, iv, cycle 1 day 1, dose level 1, pevonedistat 20 mg/m^2 IV (belinostat 800 mg/m^2), n=2, actual values
[7] = human, plasma, iv, cycle 1 day 1, dose level 2, pevonedistat 25 mg/m^2 IV (belinostat 800 mg/m^2), mean±SD, n=3
[8] = human, plasma, iv, cycle 1 day 1, dose level 3, pevonedistat 37 mg/m^2 IV (belinostat 800 mg/m^2), mean±SD, n=3
[9] = human, plasma, iv, cycle 1 day 1, dose level 4, pevonedistat 37 mg/m^2 IV (belinostat 1000 mg/m^2), mean±SD, n=3

Compound: NS(=O)(=O)OC[C@@H]1C[C@@H](n2ccc3c(N[C@H]4CCc5ccccc54)ncnc32)C[C@@H]1O [Pevonedistat]
- Survival (high-risk MDS): 23.8 mos
- Concentrations shown to exert activity in preclinical studies [1]: 100 to 200 nM
- Pevonedistat AUCINF by BSA-based dose ([2]; 37 mg/m^2 compared with 20 or 25 mg/m^2, p = 0.02, Kruskal–Wallis): significantly higher
- AUCINF [2, 4]: 2.85 µM·h
- Cl (systemic clearance) [2, 4]: 28.5 L/h
- T1/2 [2, 4]: 6.12 h
- Cmax [2, 4]: 311 nM
- Cl (systemic clearance) ([2]; cycle 1 day 1, dose level 3, pevonedistat 37 mg/m^2 IV (belinostat 800 mg/m^2), mean±SD, n=3): 34.9 ± 2.9 (3) L/hr
- Cl (systemic clearance) ([2]; cycle 1 day 1, dose level 4, pevonedistat 37 mg/m^2 IV (belinostat 1000 mg/m^2), mean±SD, n=3): 35.5 ± 8.3 (3) L/hr
- Cl (systemic clearance) ([2]; cycle 1 day 1, pevonedistat 37 mg/m^2 IV, all 37 mg/m^2 patients (dose levels 3-4), mean±SD, n=6): 35.2 ± 5.6 (6) L/hr
- Pharmacokinetic parameters compared between dose levels ([2]; dose levels 1-4, Kruskal–Wallis): not different by dose level
- AUC(0-inf) [2, 5]: 4.78 ± 0.958 µM·h
- half-life [2, 5]: 5.79 ± 0.99 h
- Cmax [2, 5]: 869 ± 290 nM
- Tmax ([2]; human, plasma, iv, 37 mg/m2, cycle 1 day 1, pevonedistat 37 mg/m^2 IV, all 37 mg/m^2 patients (dose levels 3-4), median (range; n)): 0.9 h
- AUC(0-inf) [2, 6]: 2.28 µM·h
- Tmax [2, 6]: 0.4 h
- half-life [2, 6]: 5.89 h
- clearance [2, 6]: 627 mL/min
- Cmax [2, 6]: 278 nM
- AUC(0-inf) [2, 7]: 2.95 ± 0.666 µM·h
- half-life [2, 7]: 6.52 ± 1.38 h
- clearance [2, 7]: 625 mL/min
- Cmax [2, 7]: 372 ± 93.2 nM
- Tmax ([2]; human, plasma, iv, cycle 1 day 1, dose level 2, pevonedistat 25 mg/m^2 IV (belinostat 800 mg/m^2), median (range; n)): 0.6 h
- AUC(0-inf) [2, 8]: 4.95 ± 0.426 µM·h
- half-life [2, 8]: 5.97 ± 0.34 h
- Cmax [2, 8]: 897 ± 26 nM
- Tmax ([2]; human, plasma, iv, cycle 1 day 1, dose level 3, pevonedistat 37 mg/m^2 IV (belinostat 800 mg/m^2), median (range; n)): 0.9 h
- AUC(0-inf) [2, 9]: 4.6 ± 1.42 µM·h
- half-life [2, 9]: 5.61 ± 1.5 h
- Cmax [2, 9]: 841 ± 455 nM
- Tmax ([2]; human, plasma, iv, cycle 1 day 1, dose level 4, pevonedistat 37 mg/m^2 IV (belinostat 1000 mg/m^2), median (range; n)): 1 h
- Complete remission (CR) + partial remission (PR) (AML; single agent in AML): 17%
- Maximum Tolerated Dose (AML; single agent, D1,3,5 dosing schedule in a 21-day cycle): 59 mg/m^2
- Effect on tumor growth [3]: inhibition of tumor growth

From PMC11742280, “A phase I study of MLN4924 and belinostat in relapsed/refractory acute myeloid leukemia or myelodysplastic syndrome” (Cancer Chemotherapy and Pharmacology, 2025)
